Laboratory results reported in PMC5623904, “Structural investigation of nucleophosmin interaction with the tumor suppressor Fbw7γ” (Oncogenesis, 2017).
Read-outs that look alike come from different tables or passages of the source. Peptide text beside a SMILES is read from it. * marks the point of attachment. Dansyl = CN(C)c1cccc2c(S(=O)(=O)*)cccc12

Tests used:
Assay type in all cases: binding
[1] = target: T1, Nter-NPM1 D36A-E39A-E93A (Homo sapiens, UniProt P06748, D36A/E39A/E93A); assay: Equilibrium fluorescence titration, Nter-NPM1 triple mutant; settings: dansylated peptide 5 μM
T1 construct: inferred from pET28a NdeI/BamHI cloning and HisTrap purification) (N); made in house; host or cells: Escherichia coli BL21(DE3)
Experimental: (§1) Nter-NPM1 mutants were obtained by site-directed mutagenesis using the Quickchange II Lightning Site-Directed Mutagenesis kit (Stratagene, La Jolla, CA, USA), following manufacturer’s instructions. Oligonucleotides used for PCR were obtained from Primm Biotech (Milan, Italy). Forward oligonucleotides used are reported in Supplementary Table 2.
(§2) All experiments were performed at 25 °C in sodium phosphate buffer 20 mM pH 7.2, or in sodium phosphate buffer 20 mM plus 100 mM NaCl pH 7.2 (which sets ionic strength to 150 mM), using a FluoroMax-4 spectrofluorometer (Jobin Yvon, Edison, NJ, USA), equipped with a water bath apparatus. Fbw7γ and CENP-W peptides, functionalized with a dansyl (5-dimetilamminonaftalen-1-sulphonyl) group at their N terminus, were purchased from JPT (Germany). Tat peptide was synthesized employing the solid phase method following standard Fmoc strategies and labeled with dansyl fluorophore at its N terminus. Crude product was purified by RP-HPLC applying a linear gradient of 0.1% TFA CH3CN in 0.1% TFA water from 5% to 65% over 12 min using a semi-preparative 2.2 × 5 cm C18 column at a flow rate of 20 ml/min. Purity and identity were confirmed by LC–MS analysis.
(§3) Titration experiments were conducted with an excitation wavelength of 330 nm while the fluorescence emission spectra were collected in the range between 350 and 650 nm. Titrations were performed at constant peptide concentration (5 μM) and varying protein concentrations (from 0 to 200/400 μM). Titrations were performed in triplicate and data, analyzed with the Graphpad Prism software (https://www.graphpad.com/scientific-software/prism/), were reported as dissociation constant±s.d.
(§4) Equilibrium binding curves were fitted to the standard quadratic equation: […]
(§5) where F is the observed fluorescence signal, n and [A]0 are the total concentration of non-varied and varied species, respectively, and KD is the equilibrium dissociation constant. B and C are constants taking into account the total fluorescence change and fluorescence at [A]0=0, respectively, and k is a term describing the slope of the curve at high protein concentration. Whenever possible, under pseudo first-order conditions, the equation 1 was simplified to: […]

[2] = target: T2, Nter-NPM1 D36A-E37A-E39A-E93A-E121A (Homo sapiens, UniProt P06748, D36A/E121A/E37A/E39A/E93A); assay: Equilibrium fluorescence titration, Nter-NPM1 quintuple mutant; settings: dansylated peptide 5 μM; for Kd: sodium phosphate 20 mM pH 7.2, 25 °C, triplicate, ±s.d.
T2 construct: inferred from pET28a NdeI/BamHI cloning and HisTrap purification) (N); made in house; host or cells: Escherichia coli BL21(DE3)
Experimental: as §1, §2, §3, §4, §5

[3] = target: T3, Nter-NPM1 (residues 16-123) (Homo sapiens, UniProt P06748); assay: Equilibrium fluorescence titration of dansylated peptide with Nter-NPM1
T3 construct: inferred from pET28a NdeI/BamHI cloning and HisTrap purification) (N); made in house; host or cells: Escherichia coli BL21(DE3)
Experimental: as §2, §3, §4, §5

[4] = target: T4, Nter-NPM1 D36A-E39A-E93A-E121A (Homo sapiens, UniProt P06748, D36A/E121A/E39A/E93A); assay: Equilibrium fluorescence titration, Nter-NPM1 quadruple mutant (E121A); settings: dansylated peptide 5 μM; sodium phosphate 20 mM pH 7.2, 25 °C; triplicate, ±s.d.
T4 construct: inferred from pET28a NdeI/BamHI cloning and HisTrap purification) (N); made in house; host or cells: Escherichia coli BL21(DE3)
Experimental: as §1, §2
as §3, with “constant±s.d. […]” for “constant±s.d.”
as §5, with “concentration.” for “concentration. Whenever possible, under pseudo first-order conditions, the equation 1 was simplified to:”

[5] = target: T5, Nter-NPM1 D36A-E37A-E39A-E93A (Homo sapiens, UniProt P06748, D36A/E37A/E39A/E93A); assay: Equilibrium fluorescence titration, Nter-NPM1 quadruple mutant (E37A); settings: dansylated peptide 5 μM
T5 construct: inferred from pET28a NdeI/BamHI cloning and HisTrap purification) (N); made in house; host or cells: Escherichia coli BL21(DE3)
Experimental: as §1, §2, §3, §4, §5

[6] = target: T6, Nter-NPM1 D36A (Homo sapiens, UniProt P06748, D36A); assay: Equilibrium fluorescence titration, Nter-NPM1 D36A mutant; settings: dansylated peptide 5 μM; sodium phosphate 20 mM pH 7.2, 25 °C; triplicate, ±s.d.
T6 construct: inferred from pET28a NdeI/BamHI cloning and HisTrap purification) (N); made in house; host or cells: Escherichia coli BL21(DE3)
Experimental: as §1
(§6) All experiments were performed at 25 °C in sodium phosphate buffer 20 mM pH 7.2, or in sodium phosphate buffer 20 mM plus 100 mM NaCl pH 7.2 (which sets ionic strength to 150 mM), using a FluoroMax-4 spectrofluorometer (Jobin Yvon, Edison, NJ, USA), equipped with a water bath apparatus. […]
as §3, with “Titrations were performed at constant peptide concentration (5 μM) and varying protein concentrations (from 0 to 200/400 μM).” left out, “constant±s.d. […]” for “constant±s.d.”
as §5, with “concentration.” for “concentration. Whenever possible, under pseudo first-order conditions, the equation 1 was simplified to:”

[7] = target: T7, Nter-NPM1 D36A-E39A (Homo sapiens, UniProt P06748, D36A/E39A); assay: Equilibrium fluorescence titration, Nter-NPM1 D36A-E39A mutant; settings: dansylated peptide 5 μM; sodium phosphate 20 mM pH 7.2, 25 °C; triplicate, ±s.d.
T7 construct: inferred from pET28a NdeI/BamHI cloning and HisTrap purification) (N); made in house; host or cells: Escherichia coli BL21(DE3)
Experimental: as §1, §6
as §3, with “Titrations were performed at constant peptide concentration (5 μM) and varying protein concentrations (from 0 to 200/400 μM).” left out, “constant±s.d. […]” for “constant±s.d.”
as §5, with “concentration.” for “concentration. Whenever possible, under pseudo first-order conditions, the equation 1 was simplified to:”

[8] = target: T8, Nter-NPM1 E37A (Homo sapiens, UniProt P06748, E37A); assay: Equilibrium fluorescence titration, Nter-NPM1 E37A mutant; settings: dansylated peptide 5 μM; sodium phosphate 20 mM pH 7.2, 25 °C; triplicate, ±s.d.
T8 construct: inferred from pET28a NdeI/BamHI cloning and HisTrap purification) (N); made in house; host or cells: Escherichia coli BL21(DE3)
Experimental: as §1, §6
as §3, with “Titrations were performed at constant peptide concentration (5 μM) and varying protein concentrations (from 0 to 200/400 μM).” left out, “constant±s.d. […]” for “constant±s.d.”
as §5, with “concentration.” for “concentration. Whenever possible, under pseudo first-order conditions, the equation 1 was simplified to:”

[9] = target: T9, Nter-NPM1 E121A (Homo sapiens, UniProt P06748, E121A); assay: Equilibrium fluorescence titration, Nter-NPM1 E121A mutant; settings: dansylated peptide 5 μM; sodium phosphate 20 mM pH 7.2, 25 °C; triplicate, ±s.d.
T9 construct: inferred from pET28a NdeI/BamHI cloning and HisTrap purification) (N); made in house; host or cells: Escherichia coli BL21(DE3)
Experimental: as §1, §6
as §3, with “Titrations were performed at constant peptide concentration (5 μM) and varying protein concentrations (from 0 to 200/400 μM).” left out, “constant±s.d. […]” for “constant±s.d.”
as §5, with “concentration.” for “concentration. Whenever possible, under pseudo first-order conditions, the equation 1 was simplified to:”

[10] = target: T10, Nter-NPM1 E39A-E93A (Homo sapiens, UniProt P06748, E39A/E93A); assay: Equilibrium fluorescence titration, Nter-NPM1 E39A-E93A mutant; settings: dansylated peptide 5 μM; sodium phosphate 20 mM pH 7.2, 25 °C; triplicate, ±s.d.
T10 construct: inferred from pET28a NdeI/BamHI cloning and HisTrap purification) (N); made in house; host or cells: Escherichia coli BL21(DE3)
Experimental: as §1, §6
as §3, with “Titrations were performed at constant peptide concentration (5 μM) and varying protein concentrations (from 0 to 200/400 μM).” left out, “constant±s.d. […]” for “constant±s.d.”
as §5, with “concentration.” for “concentration. Whenever possible, under pseudo first-order conditions, the equation 1 was simplified to:”

[11] = target: T11, Nter-NPM1 D36A-E93A (Homo sapiens, UniProt P06748, D36A/E93A); assay: Equilibrium fluorescence titration, Nter-NPM1 D36A-E93A mutant; settings: dansylated peptide 5 μM; sodium phosphate 20 mM pH 7.2, 25 °C; triplicate, ±s.d.
T11 construct: inferred from pET28a NdeI/BamHI cloning and HisTrap purification) (N); made in house; host or cells: Escherichia coli BL21(DE3)
Experimental: as §1, §6
as §3, with “Titrations were performed at constant peptide concentration (5 μM) and varying protein concentrations (from 0 to 200/400 μM).” left out, “constant±s.d. […]” for “constant±s.d.”
as §5, with “concentration.” for “concentration. Whenever possible, under pseudo first-order conditions, the equation 1 was simplified to:”

[12] = target: T12, Nter-NPM1 E93A (Homo sapiens, UniProt P06748, E93A); assay: Equilibrium fluorescence titration, Nter-NPM1 E93A mutant; settings: dansylated peptide 5 μM; sodium phosphate 20 mM pH 7.2, 25 °C; triplicate, ±s.d.
T12 construct: inferred from pET28a NdeI/BamHI cloning and HisTrap purification) (N); made in house; host or cells: Escherichia coli BL21(DE3)
Experimental: as §1, §6
as §3, with “Titrations were performed at constant peptide concentration (5 μM) and varying protein concentrations (from 0 to 200/400 μM).” left out, “constant±s.d. […]” for “constant±s.d.”
as §5, with “concentration.” for “concentration. Whenever possible, under pseudo first-order conditions, the equation 1 was simplified to:”

[13] = target: T13, Nter-NPM1 E39A (Homo sapiens, UniProt P06748, E39A); assay: Equilibrium fluorescence titration, Nter-NPM1 E39A mutant; settings: dansylated peptide 5 μM; sodium phosphate 20 mM pH 7.2, 25 °C; triplicate, ±s.d.
T13 construct: inferred from pET28a NdeI/BamHI cloning and HisTrap purification) (N); made in house; host or cells: Escherichia coli BL21(DE3)
Experimental: as §1, §6
as §3, with “Titrations were performed at constant peptide concentration (5 μM) and varying protein concentrations (from 0 to 200/400 μM).” left out, “constant±s.d. […]” for “constant±s.d.”
as §5, with “concentration.” for “concentration. Whenever possible, under pseudo first-order conditions, the equation 1 was simplified to:”

[14] = sodium phosphate 20 mM pH 7.2, 25 °C, triplicate, ±s.d., read-out: KD, D36A-E39A-E93A
[15] = sodium phosphate 20 mM pH 7.2, 25 °C, triplicate, ±s.d., read-out: KD, D36A-E37A-E39A-E93A

T5 sequence (P06748 16-123 D36A/E37A/E39A/E93A): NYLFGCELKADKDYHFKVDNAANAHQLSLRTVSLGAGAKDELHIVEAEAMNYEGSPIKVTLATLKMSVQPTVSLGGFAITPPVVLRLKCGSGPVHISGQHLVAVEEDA
T2 sequence (P06748 16-123 D36A/E37A/E39A/E93A/E121A): as the sequence (P06748 16-123 D36A/E37A/E39A/E93A) above, with E106A counted along it
T1 sequence (P06748 16-123 D36A/E39A/E93A): as the sequence (P06748 16-123 D36A/E37A/E39A/E93A) above, with A22E counted along it
T3 sequence (P06748 16-123): as the sequence (P06748 16-123 D36A/E37A/E39A/E93A) above, with A21D, A22E, A24E, A78E counted along it
T4 sequence (P06748 16-123 D36A/E39A/E93A/E121A): as the sequence (P06748 16-123 D36A/E37A/E39A/E93A) above, with A22E, E106A counted along it
T12 sequence (P06748 16-123 E93A): as the sequence (P06748 16-123 D36A/E37A/E39A/E93A) above, with A21D, A22E, A24E counted along it
T9 sequence (P06748 16-123 E121A): as the sequence (P06748 16-123 D36A/E37A/E39A/E93A) above, with A21D, A22E, A24E, A78E, E106A counted along it
T8 sequence (P06748 16-123 E37A): as the sequence (P06748 16-123 D36A/E37A/E39A/E93A) above, with A21D, A24E, A78E counted along it
T11 sequence (P06748 16-123 D36A/E93A): as the sequence (P06748 16-123 D36A/E37A/E39A/E93A) above, with A22E, A24E counted along it
T6 sequence (P06748 16-123 D36A): as the sequence (P06748 16-123 D36A/E37A/E39A/E93A) above, with A22E, A24E, A78E counted along it
T10 sequence (P06748 16-123 E39A/E93A): as the sequence (P06748 16-123 D36A/E37A/E39A/E93A) above, with A21D, A22E counted along it
T7 sequence (P06748 16-123 D36A/E39A): as the sequence (P06748 16-123 D36A/E37A/E39A/E93A) above, with A22E, A78E counted along it
T13 sequence (P06748 16-123 E39A): as the sequence (P06748 16-123 D36A/E37A/E39A/E93A) above, with A21D, A22E, A78E counted along it

## CC(C)C[C@H](NC(=O)[C@H](Cc1ccccc1)NC(=O)CNC(=O)[C@H](CCCNC(=N)N)NC(=O)[C@@H]1CCCN1C(=O)[C@H](C)NC(=O)[C@H](CCCCN)NC(=O)[C@H](CCCNC(=N)N)NC(=O)[C@H](CCCCN)NS(=O)(=O)c1cccc2c(N(C)C)cccc12)C(=O)N[C@@H](CCCCN)C(=O)N[C@@H](CCCNC(=N)N)C(=O)N[C@H](C(=O)N[C@@H](Cc1ccccc1)C(=O)N[C@@H](CCCCN)C(=O)N[C@@H](CCCNC(=N)N)C(=O)N[C@@H](CCCCN)C(=O)N[C@@H](CCCCN)C(=O)O)C(C)C [CENP-W*] (Dansyl-KRKAPRGFLKRVFKRKK-OH)
[1]; [14]
  Kd: 18.4 ± 2.6 µM
[2]
  Kd: 734 ± 158 µM
[3]; SD, read-out: Nter-NPM1 KD
  Kd: 6.2 ± 0.9 µM
[4]
  Kd: 82.8 ± 5.6 µM
[5]; [15]
  Kd: 71.4 ± 9.1 µM

## CSCC[C@H](NC(=O)[C@H](CCCNC(=N)N)NC(=O)[C@H](CCCNC(=N)N)NC(=O)[C@H](CCCNC(=N)N)NC(=O)[C@H](CS)NC(=O)[C@H](Cc1ccccc1)NC(=O)[C@@H]1CCCN1C(=O)[C@H](CC(C)C)NS(=O)(=O)c1cccc2c(N(C)C)cccc12)C(=O)N[C@@H](CCCCN)C(=O)N[C@@H](CCCNC(=N)N)C(=O)N[C@@H](CCCCN)C(=O)N[C@@H](CC(C)C)C(=O)N[C@@H](CC(=O)O)C(=O)N[C@@H](Cc1c[nH]cn1)C(=O)O [Fbw7γ*] (Dansyl-LPFCRRRMKRKLDH-OH)
[6]
  Kd: 10.8 ± 2.6 µM
[7]
  Kd: 13.5 ± 2 µM
[1]; [14]
  Kd: 22 ± 3 µM
[1]; sodium phosphate 20 mM plus 100 mM NaCl pH 7.2 (ionic strength 150 mM), 25 °C, read-out: KD 100mM NaCl, D36A-E39A-E93A
  Kd: 66.8 ± 12.5 µM
[8]
  Kd: 12.5 ± 1.4 µM
[2]
  Kd: 654 ± 46.9 µM
[2]; sodium phosphate 20 mM plus 100 mM NaCl pH 7.2 (ionic strength 150 mM), 25 °C
  KD 100mM NaCl, D36A-E37A-E39A-E93A-E121A: No Interaction
[9]
  Kd: 13.3 ± 3.8 µM
[10]
  Kd: 7.6 ± 1.9 µM
[11]
  Kd: 8.4 ± 1.5 µM
[3]; SD, read-out: Nter-NPM1 KD
  Kd: 3.2 ± 0.6 µM
[3]; wild type, sodium phosphate 20 mM plus 100 mM NaCl pH 7.2 (ionic strength 150 mM), 25 °C, dansylated peptide 5 μM, read-out: KD 100mM NaCl, Nter-NPM1
  Kd: 20.6 ± 2.6 µM
[12]
  Kd: 5 ± 1.6 µM
[13]
  Kd: 6.2 ± 1.5 µM
[4]
  Kd: 224 ± 35.9 µM
[5]; [15]
  Kd: 151 ± 20.5 µM
[5]; sodium phosphate 20 mM plus 100 mM NaCl pH 7.2 (ionic strength 150 mM), 25 °C, read-out: KD 100mM NaCl, D36A-E37A-E39A-E93A
  Kd: 158 ± 12.3 µM
